Experimental findings from patent US6051605A, “Method of treating psychosis and schizophrenia” (priority 1999, dated 2000) are described below.

Counter-ions that a name gives are not always drawn.

The target of the experiment is T1, human recombinant dopamine D4.2 receptor (Homo sapiens, UniProt P21917, DEL265-296).
T1 construct: expressed in transfected cells; membranes
T1 sequence (P21917 with tags, fused parts or gaps DEL265-296): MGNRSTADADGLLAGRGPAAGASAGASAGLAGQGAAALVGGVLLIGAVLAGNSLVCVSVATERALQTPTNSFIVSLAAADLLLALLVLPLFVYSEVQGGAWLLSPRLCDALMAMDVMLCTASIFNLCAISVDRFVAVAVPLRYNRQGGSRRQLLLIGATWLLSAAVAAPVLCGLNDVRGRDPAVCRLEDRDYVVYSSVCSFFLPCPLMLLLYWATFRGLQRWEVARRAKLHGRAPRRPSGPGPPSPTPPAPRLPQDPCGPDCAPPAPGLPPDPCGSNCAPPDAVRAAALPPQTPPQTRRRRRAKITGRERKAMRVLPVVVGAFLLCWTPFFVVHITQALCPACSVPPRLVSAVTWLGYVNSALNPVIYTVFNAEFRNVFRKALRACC
The experiment is described as follows: Receptor binding assay, D4.2 dopamine receptor ([3H]spiperone competition).
Take `Fc1ccc(OCCCNCCOc2ccc(Cl)cc2)cc1` [Example 4h, [2-(4-Chloro-phenoxy)-ethyl]-[3-(4-fluoro-phenoxy)-propyl]-amine hydrochloride]: the inhibition constant (Ki) (in general, a measure of affinity in units of concentration, obtained from inhibition or displacement) was 0.84 nM. For `Cc1ccc(SCCNCCCOc2ccccc2)cc1` [Example 4d, (3-Phenoxy-propyl)-(2-p-tolylsulfanyl-ethyl)-amine hydrochloride] the value was 30 nM; for `Brc1ccc(OCCCNCCOc2ccccc2)cc1` [Example 16i, [3-(4-Bromo-phenoxy)-propyl]-(2-phenoxy-ethyl)-amine hydrochloride], 6.1 nM. For `Clc1ccc(OCCNCCCOc2ccc(Br)cc2)cc1` [Example 3g, [3-(4-Bromo-phenoxy)-propyl]-[2-(4-chloro-phenoxy)-ethyl]-amine hydrochloride] the value was 37.8 nM; for `O=[N+]([O-])c1ccc(OCCNCCCOc2ccccc2)cc1` [Example 2a, [2-(4-Nitro-phenoxy)-ethyl]-(3-phenoxy-propyl)-amine hydrochloride], 4.4 nM; for `CCOc1ccc(OCCNCCCOc2ccccc2)cc1` [Example 2c, [2-(4-Ethoxy-phenoxy)-ethyl]-(3-phenoxy-propyl)-amine hydrochloride], 11.9 nM. Under `Cc1ccc(OCCCNCCCOc2ccc(C)cc2)cc1` [Example 4b, Bis(3-p-tolyloxy-propyl)-amine hydrochloride] stands 136 nM; under `COc1ccc(OCCCNCCCOc2ccc(OC)cc2)cc1` [Example 1q, Bis[3-(4-methoxy-phenoxy)-propyl]-amine hydrochloride], 1330 nM; under `Cc1ccc(OCCNCCCOc2ccccc2)cc1` [Example 2, (3-Phenoxy-propyl)-(2-p-tolyloxy-ethyl)-amine hydrochloride], 0.2 nM. As for `Cc1ccc(OCCCNCCOc2ccc(C)cc2)cc1` [Example 3, (2-p-Tolyloxy-ethyl)-(3-p-tolyloxy-propyl)-amine hydrochloride], the inhibition constant (Ki) was 11.4 nM. Under `N#Cc1ccc(OCCNCCCOc2ccccc2)cc1` [Example 6b, 4-[2-(3-Phenoxy-propylamino)-ethoxy]-benzonitrile] stands 10.7 nM; under `Cc1ccc(OCCCNCCOc2ccc(Cl)cc2)cc1` [Example 3e, [2-(4-Chloro-phenoxy)-ethyl]-(3-p-tolyloxy-propyl)-amine hydrochloride], 5.6 nM; under `COc1ccc(OCCNCCCOc2ccccc2)cc1` [Example 9d, [2-(4-Methoxy-phenoxy)-ethyl]-(3-phenoxy-propyl)-amine hydrochloride], 5.4 nM.

As for `O=C(O)c1ccc(OCCNCCCOc2ccccc2)cc1` [Example 15, 4-[2-(3-Phenoxy-propylamino)-ethoxy]-benzoic acid hydrochloride], the Ki is greater than 1000 nM. For the compound `OC(CNCCOc1ccc(Cl)cc1)COc1ccccc1` (stereo not shown) [Example 16h, 1-[2-(4-Chloro-phenoxy)-ethylamino]-3-phenoxy-propan-2-ol], the inhibition constant (Ki) came to 2.1 nM.

As for `Cc1ccc(OCCNCCCOc2ccc(F)cc2)cc1` [Example 4c, [3-(4-Fluoro-phenoxy)-propyl]-(2-p-tolyloxy-ethyl)-amine hydrochloride], the Ki was 0.96 nM. Under `COC(=O)c1ccc(OCCNCCCOc2ccccc2)cc1` [Example 6a, 4-[2-(3-Phenoxy-propylamino)-ethoxy]-benzoic acid methyl ester] stands 10.9 nM; under `Cc1ccc(OCCNCCOc2ccc(C)cc2)cc1` [Example 6e, Bis-(2-p-tolyloxy-ethyl)-amine hydrochloride], 74.9 nM; under `c1ccc(OCCCNCCOc2ccc(-c3ccccc3)cc2)cc1` [Example 2e, [2-(Biphenyl-4-yloxy)-ethyl]-(3-phenoxy-propyl)-amine hydrochloride], 383 nM. Under `Clc1ccc(OCCNCCCSc2ccccc2)cc1` [Example 4f, [2-(4-Chloro-phenoxy)-ethyl]-(3-phenylsulfanyl-propyl)-amine hydrochloride] stands 1.7 nM; under `Clc1ccc(SCCNCCCOc2ccccc2)cc1` [Example 4e, [2-(4-Chloro-phenylsulfanyl)-ethyl]-(3-phenoxy-propyl)-amine hydrochloride], 33.1 nM; under `Cc1ccc(OCCNCCCOc2ccc(Br)cc2)cc1` [Example 3b, [3-(4-Bromo-phenoxy)-propyl]-(2-p-tolyloxy-ethyl)-amine hydrochloride], 26.9 nM.

For `Oc1ccc(OCCNCCCOc2ccccc2)cc1` [Example 11, 4-[2-(3-Phenoxy-propylamino)-ethoxy]-phenol hydrobromide], the inhibition constant Ki was determined as 3.1 nM.

Regarding `Cc1ccc(CCCNCCCOc2ccccc2)cc1` [Example 5, (3-Phenoxy-propyl)-(3-p-tolyl-propyl)-amine hydrochloride], the inhibition constant Ki worked out at 4.7 nM. For the compound `Cc1ccc(OCCNCCCSc2ccccc2)cc1` [Example 4g, (3-Phenylsulfanyl-propyl)-(2-p-tolyloxy-ethyl)-amine hydrochloride], the inhibitory constant (Ki) was found to be 1.2 nM. Regarding `Cc1ccc(OCCNCCOc2ccccc2)cc1` [Example 6d, (2-Phenoxy-ethyl)-(2-p-tolyloxy-ethyl)-amine hydrochloride], the Ki was 103 nM. Under `Cc1ccc(OCCCNCCOc2ccccc2)cc1` [Example 3f, (2-Phenoxy-ethyl)-(3-p-tolyloxy-propyl)-amine hydrochloride] stands 2.7 nM; under `Fc1ccc(OCCCNCCOc2ccccc2)cc1` [Example 4, [3-(4-Fluoro-phenoxy)-propyl]-(2-phenoxy-ethyl)-amine hydrochloride], 1.2 nM; under `Cc1ccc(OCCNCC(O)COc2ccccc2)cc1` (stereo not shown) [Example 16g, 1-Phenoxy-3-(2-p-tolyloxy-ethylamino)-propan-2-ol], 1.3 nM. For `Brc1ccc(OCCCNCCCOc2ccc(Br)cc2)cc1` [Example 4a, Bis-[3-(4-bromo-phenoxy)-propyl]-amine hydrochloride] the value was 45.8 nM; for `CC(C)(C)c1ccc(OCCNCCCOc2ccccc2)cc1` [Example 2b, [2-(4-tert-Butyl-phenoxy)-ethyl]-(3-phenoxy-propyl)-amine hydrochloride], 20.9 nM.
